In assay [1] the target is T1, DNA polymerase alpha catalytic subunit (Homo sapiens, UniProt P09884).
T1 sequence (P09884 whole entry): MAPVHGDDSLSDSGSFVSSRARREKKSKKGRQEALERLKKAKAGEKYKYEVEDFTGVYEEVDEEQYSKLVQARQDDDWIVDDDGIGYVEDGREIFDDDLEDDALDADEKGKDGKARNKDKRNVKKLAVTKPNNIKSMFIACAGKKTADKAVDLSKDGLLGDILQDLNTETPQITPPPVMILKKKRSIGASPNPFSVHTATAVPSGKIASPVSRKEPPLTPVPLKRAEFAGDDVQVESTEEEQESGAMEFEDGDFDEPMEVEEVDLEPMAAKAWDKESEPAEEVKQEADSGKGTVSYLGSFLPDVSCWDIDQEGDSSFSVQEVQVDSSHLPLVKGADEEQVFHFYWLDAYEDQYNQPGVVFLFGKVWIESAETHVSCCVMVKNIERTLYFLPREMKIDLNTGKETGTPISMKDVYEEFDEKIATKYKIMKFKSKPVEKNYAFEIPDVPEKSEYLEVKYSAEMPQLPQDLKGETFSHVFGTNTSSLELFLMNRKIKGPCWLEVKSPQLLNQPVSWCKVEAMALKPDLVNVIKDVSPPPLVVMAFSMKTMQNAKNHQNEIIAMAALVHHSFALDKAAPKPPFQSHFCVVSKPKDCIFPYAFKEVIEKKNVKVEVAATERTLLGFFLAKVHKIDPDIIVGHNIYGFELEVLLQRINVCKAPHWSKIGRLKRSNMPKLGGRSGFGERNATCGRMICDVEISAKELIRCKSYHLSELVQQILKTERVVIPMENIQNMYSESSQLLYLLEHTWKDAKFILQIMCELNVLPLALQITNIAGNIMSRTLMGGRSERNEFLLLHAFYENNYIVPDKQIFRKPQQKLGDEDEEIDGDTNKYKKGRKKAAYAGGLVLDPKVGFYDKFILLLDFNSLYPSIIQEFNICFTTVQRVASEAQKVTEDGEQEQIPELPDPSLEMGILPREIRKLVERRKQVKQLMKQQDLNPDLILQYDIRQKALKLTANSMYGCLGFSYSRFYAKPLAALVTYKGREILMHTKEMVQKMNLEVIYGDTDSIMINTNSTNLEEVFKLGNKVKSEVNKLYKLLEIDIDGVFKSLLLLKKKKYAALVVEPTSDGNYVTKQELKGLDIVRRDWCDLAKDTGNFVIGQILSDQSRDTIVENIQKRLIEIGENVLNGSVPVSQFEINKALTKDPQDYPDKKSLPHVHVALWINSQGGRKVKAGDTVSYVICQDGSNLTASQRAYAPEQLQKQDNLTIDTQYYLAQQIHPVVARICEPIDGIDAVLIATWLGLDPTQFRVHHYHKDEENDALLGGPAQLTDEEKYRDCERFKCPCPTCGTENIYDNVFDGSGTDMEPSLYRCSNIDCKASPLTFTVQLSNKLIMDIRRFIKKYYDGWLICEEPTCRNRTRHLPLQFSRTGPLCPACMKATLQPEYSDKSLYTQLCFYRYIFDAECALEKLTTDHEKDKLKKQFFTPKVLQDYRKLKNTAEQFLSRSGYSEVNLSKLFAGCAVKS
Nature of the assay: Inhibition of DNA polymerase alpha.

The target of assay [2] is DNA nucleotidylexotransferase (Homo sapiens, UniProt P04053). Nature of the assay: Inhibition of human TdT.
DNA nucleotidylexotransferase, sequence (P04053 whole entry): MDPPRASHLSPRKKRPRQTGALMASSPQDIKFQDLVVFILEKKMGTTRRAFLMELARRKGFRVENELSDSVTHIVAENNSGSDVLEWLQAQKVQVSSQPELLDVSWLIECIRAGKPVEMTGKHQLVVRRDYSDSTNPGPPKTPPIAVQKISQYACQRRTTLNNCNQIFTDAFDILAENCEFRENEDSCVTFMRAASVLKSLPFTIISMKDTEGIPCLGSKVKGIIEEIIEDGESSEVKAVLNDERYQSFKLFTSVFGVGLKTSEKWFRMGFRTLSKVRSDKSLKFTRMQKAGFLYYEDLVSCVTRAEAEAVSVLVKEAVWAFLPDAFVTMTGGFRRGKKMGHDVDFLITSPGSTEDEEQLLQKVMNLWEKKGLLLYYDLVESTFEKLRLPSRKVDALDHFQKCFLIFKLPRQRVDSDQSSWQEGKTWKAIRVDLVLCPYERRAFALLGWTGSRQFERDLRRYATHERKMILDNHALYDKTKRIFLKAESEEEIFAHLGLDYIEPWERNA
Another assay deals with DNA polymerase beta (Homo sapiens, UniProt P06746). Nature of the assay: Inhibition of DNA polymerase beta.

This passage reports IC50 results from ChEMBL document CHEMBL1147790, “Synthetic analogues of the manzamenones and plakoridines which inhibit DNA polymerase” (Bioorg Med Chem Lett, 2006).

For orientation: IC50 means the concentration that gives 50% inhibition. The low end stands for higher potency, the high end for lower potency. On to `CCCCCCCCCCCCCCCCC1=C[C@H](C(=O)OCC)[C@H]2C(=O)C(C(=O)OC)=C(CCCCCCCCCCCCCCCC)[C@H]2[C@H]1C(=O)OC`, for which the results for the IC50 (in assay [1]; in assay [2]; on DNA polymerase beta) were 2.3 µM, 39.7 µM and 1.9 µM, respectively.
With `CCCCCCCCCCCCC1=C[C@H](C(=O)O)[C@H]2C(=O)C(C(=O)OC)=C(CCCCCCCCCCCC)[C@H]2[C@H]1C(=O)OC`, the IC50 in assay [1] is 1.9 µM; in assay [2] it was 8.6 µM; against DNA polymerase beta, 2.3 µM.
Turning to `CCCCCCCCCCCCCCCCC1=C[C@H](C(=O)O)[C@H]2C(=O)C(C(=O)OC(C)C)=C(CCCCCCCCCCCCCCCC)[C@H]2[C@H]1C(=O)OC(C)C`, the IC50 in assay [1] stood at 3.3 µM; in assay [2], 20 µM; against DNA polymerase beta it was 4.4 µM.
For the molecule `CCCCCCCCCCCCCCCCC1=C[C@H](C(=O)NCCc2ccccc2)[C@H]2C(=O)C(C(=O)OC)=C(CCCCCCCCCCCCCCCC)[C@H]2[C@H]1C(=O)OC`, the IC50 in assay [1] is 6.9 µM; in assay [2] it was above 12.5 µM; against DNA polymerase beta, 8.7 µM.
Take `CCCCCCCCCCCCCCCC[C@]1(O)C=C[C@H](O)[C@H]1C(=O)OC` [PLAKEVULIN A]: the IC50 in assay [1] is 66 µM; at DNA polymerase beta it was 179 µM.
On to `CCCCCCCCCCCCCCCCC1=C[C@H](C(=O)OCC)[C@H]2C(=O)C(C(=O)OC)=C(CCCCCCCCCCCCCCCC)[C@H]2[C@@H]1C(=O)OC`, for which the figures for the IC50 (in assay [1]; in assay [2]; against DNA polymerase beta) were 3.5 µM, 48.4 µM and 2.4 µM, respectively.
For `CCCCCCCCCCCCC(=O)/C=C1\[C@H](O)[C@@H](C(=O)OC)[C@H](CC)N1Cc1ccccc1`, the 50% inhibitory concentration (IC50) in assay [1] was 19.9 µM; in assay [2] it was above 50 µM; against DNA polymerase beta it was 30 µM.
For the molecule `CCCCCCCCCCCCC(=O)/C=C1\[C@H](O)[C@@H](C(=O)OC)[C@H](CC)N1CCc1ccccc1`, the IC50 was 25 µM in assay [1], above 50 µM in assay [2] and 22 µM against DNA polymerase beta.
Taken in the same sequence, the figures for `CCC1=C[C@H](C(=O)O)[C@H]2C(=O)C(C(=O)OC)=C(CC)[C@H]2[C@H]1C(=O)OC` were above 50 µM, above 50 µM and above 50 µM.
Regarding `CCCCCCCCCCCCCCCCC1=C[C@H](C(=O)O)[C@H]2C(=O)C(C(=O)OC)=C(CCCCCCCCCCCCCCCC)[C@H]2[C@H]1C(=O)OC`, the results for the IC50 (in assay [1]; in assay [2]; against DNA polymerase beta) were 1.9 µM, 2.5 µM and 3.2 µM, respectively.
Turning to `CCCCCCCCCCCCCCCC[C@]1(O)C=CC(=O)[C@H]1C(=O)OC` [UNTENONE A], the values for the concentration for half-maximal inhibition (IC50) (in assay [1]; on DNA polymerase beta) were 4.3 µM and 57 µM, respectively.
Consider `CCCCCCCCCCCCCCCCC1=C[C@H](C(=O)OC)[C@H]2C(=O)[C@]3(C(=O)OC)C[C@]3(CCCCCCCCCCCCCCCC)[C@H]2[C@H]1C(=O)OC`, for which the IC50 (in assay [1]; in assay [2]; on DNA polymerase beta) was above 12.5 µM in each case.
Consider `CCCCCCCCCCCCC(=O)/C=C1\[C@@H](O)[C@@H](C(=O)OC)[C@H](CC)N1Cc1ccccc1`, for which the half-maximal inhibitory concentration (IC50) in assay [1] was 19.7 µM; in assay [2], above 50 µM; at DNA polymerase beta, 27.1 µM.
In the case of `CCCCCCCCCCCCC(=O)/C=C1\[C@H](O)[C@@H](C(=O)OC)[C@H](c2ccccc2)N1CCc1c[nH]c2ccccc12`, the figures for the 50% inhibitory concentration (IC50) (in assay [1]; in assay [2]; against DNA polymerase beta) were 21 µM, above 50 µM and 10 µM, respectively.
Take `CCCCCCCCCCCCCCCCC(=O)/C=C/C(=O)CC(=O)OC` [E-ENEDIONE]: the results for the IC50 (in assay [1]; against DNA polymerase beta) were 3.7 µM and 8.8 µM, respectively.
